These results are taken from patent US6399570B1, “Antimicrobial/endotoxin neutralizing polypeptide” (priority 1999, dated 2002).

The test system of assay [1] is E. coli 0111. The assay can be described thus: Galactosamine-sensitized, leukopenic mouse model of bacteremic lethality. Format: in vivo, CF-1 mice. The following applies: 100 μM, i.p., simultaneous with lethal E. coli dose; 10% in untreated animals. As for the experimental part:
The ultimate protective potential of the LF 6 kDa polypeptide in a host-defense against bacterial infection was determined by testing in an acute, galactosamine-sensitized, leukopenic mouse model system (Bucklin et al., J. Infect. Dis. 174: 1249-1254 (1996)). In this model, mice were made leukopenic to suppress their endogenous host defense systems and then sensitized to the effects of Gram-negative endotoxins by galactosamine treatment while injecting a lethal intraperitoneal dose of E. coli. […] This rescue from lethality dramatically illustrates the protective potential of the polypeptide in vivo and is likely due to its combined antimicrobial and anti-endotoxin properties.
Generation of galactosamine-sensitized, leukopenic mouse model system. CF-1 mice were rendered immunocompromised by cyclophosphamide treatment three days prior to galactosamine-sensitizing them to the lethal effects of injection with an LD90 dose of E. coli 0111 (Bucklin et al., J. Infect. Dis. 174: 1249-1254 (1996)). Under these conditions, circulating leukocytes were reduced by 85% and the LD90 was determined to be 5×10^3 CFU E. coli.

In assay [2] the test system is E. coli. Nature of the assay: Ionic strength effect on antimicrobial activity. To be noted: 25 μM polypeptide. The class given is cell-based. As for the experimental part:
For example, reducing the ionic strength from 150 mM NaCl to 50 mM NaCl reduces the number of viable bacteria after exposure by ˜10,000-fold.
Determining ionic strength effect on antimicrobial activity. E. coli were cultured overnight as described earlier. […] To control for the effects of salt alone on culture growth, the ratio of CFU in polypeptide treated cultures to that in untreated control cultures, grown in the same salt concentration but lacking any polypeptide treatment, was calculated for each salt concentration examined. These values were then normalized to the ratio calculated for CFUs measured at […], the lowest salt concentration tested, and plotted on the Y-axis versus increasing concentration of salt on the X-axis.

Assay [3] relates to RAW 264.7 cells. Nature of the assay: Endotoxin induced TNF-α secretion by RAW 264.7 cells. The class given is cell-based, murine. As for the experimental part:
Suppression of endotoxin-induced TNF-α secretion by a macrophage cell line RAW 264.7 was also measured (Kelly et al., Infect. Immun. 59: 4491-6 (1991)). RAW 264.7 cells secret TNF-α upon exposure to endotoxin (M. R. Ruff and G. E. Gifford, Lymphokines 2: 235-272 (1981)). […] Similar to the results of the LAL assay, the potency of LF-33 varied depending on the type of endotoxin. The LF-33 concentration needed to suppress 50% TNF-α secretion induced by endotoxin (10 ng/ml) was approximately 0.01 μM for E. coli LPS and lipid A, 0.1 μM for LPS from P. aeruginosa, and 0.5 μM for LPS from S. abortus equi and N. meningitidis.
Endotoxin induced TNF-α secretion by RAW 264.7 cells. The murine macrophage cell line RAW 264.7 was obtained from the American Type Culture Collection (ATCC, Rockville, Md.) and maintained as described previously (Jeremy, B., Immunol. Today. 16: 417-419 (1995)). The concentration of endotoxin in all buffers and media was controlled to below 0.1 EU/ml. The following protocol was essentially described before and used here with minor modifications (Kelly et al., Infect. Immun. 59: 4491-6 (1991)). Each well of a 96-well tissue culture plate was seeded with 150 μl RAW 264.7 cells at 10^6 cells per ml DMEM (Life Technologies, Gaithersburg, Md.) supplemented with 10% heat-treated fetal bovine serum (Life Technologies), 25 mM HEPES (N-2-hydroxyethylpiperazine-N′-2-ethanesulfonic acid; pH 7.3), penicillin (60 U/ml) and streptomycin (60 μg/ml). After overnight incubation at 37° C. in a 6% CO2 incubator, the medium was aspirated and cells washed with 3-changes of endotoxin-free Hank's balanced salt solution (HBSS, Life Technologies) supplemented with 25 mM HEPES (pH 7.3). Control endotoxin (10 ng/ml) and test materials were prepared in HBSS-HEPES. After incubation in a 37° C. water bath for 1 h, 0.2 ml of these solutions was added in triplicate to each well and incubated at 37° C. for 6 h. The supernatants were then collected and stored at −70° C. before the measurement of […] activity. Controls included HBSS-HEPES and test materials in the absence of endotoxin. TNF-α activity of the medium and test materials was below […]. The human serum used in some experiments was a pool from normal donors.
Determination of TNF activity. TNF-α activity in the culture supernatant was determined based on its cytotoxicity for the mouse fibrosarcoma cell line WEHI 164 cells (ATCC). […] The antibody at 1:100 dilution completely eliminated the cytotoxicity in the culture supernatant of the RAW 264.7 cell stimulated by endotoxin and in the mouse sera collected 1 h after intraperitoneal injection of endotoxin.
Briefly, the 96-well tissue culture plates were seeded with 100 μl WEHI164 cells (5×10^4 cells) in RPMI-1640 medium (Life Technologies) containing 10% heat-treated fetal bovine serum, 25 mM HEPES (pH 7.3), penicillin (60 U/ml), streptomycin (60 μg/ml), and actinomycin D (4 μg/ml). After a 2-h incubation at 37° C. in a 6% CO2 incubator, 10 μl twofold serially diluted samples (culture supernatants) or standards (murine recombinant TNF-α, Genzyme) was added to each well, and incubated for 20 h. Cell viability was then determined by the addition of 10 μl MTT (Thiazolyl blue, Sigma) stock solution (5 mg/ml in saline) to each well, and the incubation was allowed to continue for 6 h. 180 μl of acid-isopropanol (containing 40 mM HCl) was added to dissolve the generated dark blue crystals. The plate was read at 570 nm with a reference of 630 nm in a microplate reader. The amount of TNF-α that led to 50% killing of the seeded cells was defined as one unit, equivalent to approximately 15 pg of recombinant TNF-α under the present condition. A standard curve was obtained by incubating known amounts of the recombinant TNF-α with the WEHI cells.

In the case of “6 kDa polypeptide: 6 kDa fragment produced by cathepsin D digestion of human LF, amino acids 1-49 of SEQ ID NO: 2 (GRRRRSVQWCAVSQPEATKCFQWQRNMRKVRGPPVSCIKRDSPIQCIQA; listed as Homo sapiens)”, the “survival rate of infected animals” value in assay [1] amounted to 70%. Besides, in assay [2] (from 150 mM NaCl to 50 mM NaCl), the “reduction of number of viable bacteria on reducing ionic strength” value is recorded as ~10,000 fold. Also, the “growth inhibiting activity at elevated ionic strength” value in assay [2] (ionic strengths equal to or greater than 200 mM NaCl) is on record as “essentially lost”.

Regarding `CSCC[C@H](NC(=O)[C@H](CC(N)=O)NC(=O)[C@H](CCCNC(=N)N)NC(=O)[C@H](CCC(N)=O)NC(=O)[C@H](Cc1c[nH]c2ccccc12)NC(=O)[C@H](CCC(N)=O)NC(=O)[C@H](Cc1ccccc1)NC(=O)[C@H](CS)NC(=O)[C@H](CCCCN)NC(=O)[C@@H](NC(=O)[C@H](C)NC(=O)[C@H](CCC(=O)O)NC(=O)[C@@H]1CCCN1C(=O)[C@H](CCC(N)=O)NC(=O)[C@H](CO)NC(=O)[C@@H](NC(=O)[C@H](C)NC(=O)[C@H](CS)NC(=O)[C@H](Cc1c[nH]c2ccccc12)NC(=O)[C@H](CCC(N)=O)NC(=O)[C@@H](N)C(C)C)C(C)C)[C@@H](C)O)C(=O)N[C@@H](CCCNC(=N)N)C(=O)N[C@@H](CCCCN)C(=O)N[C@H](C(=O)N[C@@H](CCCNC(=N)N)C(=O)NCC(=O)N1CCC[C@H]1C(=O)O)C(C)C` [LF-27], the “TNF-α secretion induced by Lipid A” value in assay [3] (agent 3 μM, endotoxin 10 ng/ml, control 2,386) is 3,182 +/− 412 pg/ml. In addition, the “TNF-α secretion induced by S. abortus LPS” value in assay [3] (agent 3 μM, endotoxin 10 ng/ml, control 3,969) is 3,985 +/− 497 pg/ml. Further, in assay [3] (agent 3 μM, endotoxin 10 ng/ml, control 4,813), the “TNF-α secretion induced by P. aer. LPS” value is reported as 4,633 +/− 603 pg/ml. The “TNF-α secretion induced by E. coli LPS” value in assay [3] (agent 3 μM, endotoxin 10 ng/ml, control 4,928) is 4,912 +/− 588 pg/ml. In addition, in assay [3] (agent 3 μM, endotoxin 10 ng/ml, control 5,658), the “TNF-α secretion induced by N. min. LPS” value is on record as 7,306 +/− 1008 pg/ml. For the same compound, the “effect on endotoxin-induced TNF-α secretion” value in assay [3] (equal molar concentration of LF-27 or 10% human serum) is reported as “no effect”.
